# Patent publication US9393276B2, “Edible composition” (Conopco,Inc., priority 2012, dated 2016)
# Columns and labels:
# [1] = system: Rat Insulinoma cell lines (RIN-5F); assay: β-cell assay for protection against gluco-lipo toxicity (diabetes model); type: cell-based; details: RIN-5F cells treated with glucose and Palmitate-BSA complex, 18 hrs, neutral red; change with respect to Control 2 (glucose and Palmitate only); wt % of ingredients as per example
# Description: This RPMI 1640 medium contains 2 g/L of glucose supplemented with 25 mM HEPES (4-(2-hydroxyethyl)-1-piperazineethanesulfonic acid, SRL Cat No: 084023C).
# After that a complete medium was prepared by adding 100 μL of 100 mM Sodium pyruvate (Sigma, Cat No: P5280) and 10% (vv) in 100 mL of RPMI 1640.
# 100 μL/well of complete medium with the added Rat Insulinoma cell (RIN-5F, ATCC (USA)) was plated in a 96 well flat bottom plate (NEST Biotechnology Co. Ltd, Cat No 701001) so that the cell concentration is maintained at a level of 3.5×10^4 cells/well. This plate was then introduced in an incubator (Thermo Scientific, Model 3111; conditions: 5% CO2, at 37° C.) for 24 hours.
# 2.267 g of ultra Fatty Acid Free BSA (Roche applied sciences, Cat No: 03117405001) was added to 100 mL of 150 mM NaCl and stirred constantly at a maintained temperature of ˜37° C. […] After that this solution was filtered with a syringe filter of pore size of 0.22 μm (Millipore®, Cat no: SLGPO33RS). • 3. […]
# After 4 hrs the neutral red medium was removed by aspiration using a micropipette and cells were washed with 100 μL/well of PBS solution (same as prepared above) to remove the excess stain. […] The colorimetric reading (absorbance) of the bound stain was read at a wavelength of 540 nm in a microwell plate reader (BIO-RAD LAB INDIA, Model No. 680). The efficacy of the test ingredients were evaluated with respect to the Control 2.
# [2] = system: Rat Insulinoma cell lines (RIN-5F); details: 24 h
# Description: Before starting the experiment it was needed to determine the cytotoxic dose for the Inula racemosa extract and theobromine. The cytotoxicity of both materials was determined as follows by Neutral red assay:
# The Rat Insulinoma cell lines (RIN-5F, ATCC (USA)) was plated at a density of 3.5×10^4 cells/well (Volume 100 μL) in a 96 well plate (NEST Biotechnology Co. Ltd, Cat No 701001) and placed it in an incubator (Thermo Scientific, Model 3111; conditions: 5% CO2, at 37° C.) for 24 hours. After the incubation 10 μL of Inula racemosa water extract (at different concentration e.g. 10%, 1%, 0.1%, 0.01%, 0.001%, 0.0001% and 0.00001%) and 10 μL of theobromine solution (at different concentration e.g. 10%, 1%, 0.1%, 0.01%, 0.001%, 0.0001% and 0.00001%) were added to the culture and incubated for 24 hours in the same incubator. As a control in some wells there was no addition of either Inula racemosa or theobromine (only medium and cells). […]
# The bound stain was extracted out from the cells by adding 150 μL of desorption solution and dissolved the dye completely. […] The absorbance of the stain extracted out from the cells was measured at 540 nm in a microwell plate reader (BIO-RAD LAB INDIA, Model No. 680).
# The percentage of live cells was calculated using the below mentioned formula: […]
Structure (SMILES),% change in cell viability [1] [%],non-cytotoxic concentration [2] [%]
"Cn1cnc2c1c(=O)[nH]c(=O)n2C [E, Theobromine]",5 ± 2,
"Cn1cnc2c1c(=O)[nH]c(=O)n2C [theobromine, 3,7-dimethylxanthine]",,≤ 0.001
